# Several values for one entry are separate records, joined by “and”; a condition that tells them apart may be missing. Identical values can stand only once. Like-named read-outs stand apart in the source and are kept apart here.
# Key:
# p-glycoprotein (Pgp) = conditions: cited from earlier work
# 5-HT1A receptor sites = experiment: Estimated occupancy by unlabeled ligand mass in the PET studies; assay type: in vivo, rhesus monkey; conditions: for occupancy at the 5-HT1A receptor sites: estimated from rat ED50; for occupancy of the unlabeled drug: comparable ED50 assumed
# [1] = ref Pike et al., 2000; Saigal et al., 2006; cited from earlier work
# [2] = Arterial plasma kinetics of parent radiotracer; conditions: for fraction of radioactivity in the plasma due to parent radiotracer: 30 minutes after injection; for clearance rate from the arterial plasma: after period of rapid clearance (>30 minutes), bolus injection
# 5-HT1A receptor [3] = target: T1, 5-HT1A receptor (Macaca mulatta, UniProt F7GIU0); assay type: in vivo, rhesus monkey
# T1 sequence (F7GIU0 1-421): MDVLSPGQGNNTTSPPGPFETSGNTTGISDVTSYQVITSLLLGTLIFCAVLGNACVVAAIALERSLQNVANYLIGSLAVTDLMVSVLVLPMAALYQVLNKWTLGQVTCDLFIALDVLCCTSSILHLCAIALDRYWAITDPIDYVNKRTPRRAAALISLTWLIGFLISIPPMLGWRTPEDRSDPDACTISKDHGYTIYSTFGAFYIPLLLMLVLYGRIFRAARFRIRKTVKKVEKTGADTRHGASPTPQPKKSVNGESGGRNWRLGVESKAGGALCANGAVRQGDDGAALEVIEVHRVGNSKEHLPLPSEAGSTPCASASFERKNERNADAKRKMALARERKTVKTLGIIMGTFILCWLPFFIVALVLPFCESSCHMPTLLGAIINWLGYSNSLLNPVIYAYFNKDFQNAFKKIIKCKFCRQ
# [4] = Cerebellar kinetics by PET, single-tissue compartment model; conditions: for cerebellar clearance rate, slow component: exponential fit, t > 30 minutes
# 5-HT1A receptor [5] = conditions: ref Saigal et al., 2006, cited from earlier work
# [6] = rhesus monkey, previous measurements; ref Saigal et al., 2006; cited from earlier work
compound,measurement,setting,value
COc1ccccc1N1CCN(CCN(C(=O)C2CCCCC2)c2ccccn2)CC1 [WAY100635],Pgp substrate,p-glycoprotein (Pgp); not told,Neither mefway nor WAY100635 have been found to be Pgp substrates
same,occupancy at the 5-HT1A receptor sites,"5-HT1A receptor sites; M1, injected mass 1.0 nmol/kg",18%
same,occupancy at the 5-HT1A receptor sites,"5-HT1A receptor sites; M4, injected mass 0.7 nmol/kg",13%
"COc1ccccc1N1CCN(CCN(C(=O)C2CCCCC2)c2ccccn2)CC1 [[C-11]WAY100635, [Carbonyl-C-11]N-(2-(1-(4-(2-Methoxyphenyl)-piperazinyl)ethyl)-N-pyridinyl) cyclohexanecarboxamide]",logP,[1],3.28
same,fraction of radioactivity in the plasma due to parent radiotracer,[2],29%
same,clearance rate from the arterial plasma,[2],0.0069 min⁻¹
same,BPND,"5-HT1A receptor [3]; ACG, mean over subjects",7.9±1.2 and 7.92
same,BPND,"5-HT1A receptor [3]; ACG, subject M1",6.90
same,BPND,"5-HT1A receptor [3]; ACG, subject M3",7.64
same,BPND,"5-HT1A receptor [3]; ACG, subject M4",9.21
same,BPND,"5-HT1A receptor [3]; IC, mean over subjects",4.7±1.0 and 4.65
same,BPND,"5-HT1A receptor [3]; IC, subject M1",4.08
same,BPND,"5-HT1A receptor [3]; IC, subject M3",4.11
same,BPND,"5-HT1A receptor [3]; IC, subject M4",5.77
same,BPND,"5-HT1A receptor [3]; MTC, mean over subjects",7.0±1.2 and 7.00
same,BPND,"5-HT1A receptor [3]; MTC, subject M1",5.97
same,BPND,"5-HT1A receptor [3]; MTC, subject M3",8.37
same,BPND,"5-HT1A receptor [3]; MTC, subject M4",6.66
same,BPND,"5-HT1A receptor [3]; RN, mean over subjects",3.3±0.7 and 3.27
same,BPND,"5-HT1A receptor [3]; RN, subject M1",3.97
same,BPND,"5-HT1A receptor [3]; RN, subject M3",2.66
same,BPND,"5-HT1A receptor [3]; RN, subject M4",3.17
same,"DVND (nondisplaceable distribution volume, K1/k2)","[4]; cerebellum, mean over subjects",2.62
same,"DVND (nondisplaceable distribution volume, K1/k2)","[4]; cerebellum, subject M1",2.55
same,"DVND (nondisplaceable distribution volume, K1/k2)","[4]; cerebellum, subject M3",2.62
same,"DVND (nondisplaceable distribution volume, K1/k2)","[4]; cerebellum, subject M4",2.70
same,"cerebellar clearance rate, slow component",[4],0.014 min⁻¹
same,K1 in the cerebellum,[4]; mean over subjects,0.74 mL/min/mL
same,k2 in the cerebellum,[4]; mean over subjects,0.28 min⁻¹
same,K1 in the cerebellum,[4]; subject M1,0.51 mL/min/mL
same,k2 in the cerebellum,[4]; subject M1,0.20 min⁻¹
same,K1 in the cerebellum,[4]; subject M3,1.10 mL/min/mL
same,k2 in the cerebellum,[4]; subject M3,0.42 min⁻¹
same,K1 in the cerebellum,[4]; subject M4,0.62 mL/min/mL
same,k2 in the cerebellum,[4]; subject M4,0.23 min⁻¹
"COc1ccccc1N1CCN(CCN(C(=O)c2ccc(F)cc2)c2ccccn2)CC1 [[F-18]MPPF, 4-Fluoro-N-[2-[4-(2-methoxyphenyl)piperazin-1-yl]ethyl]-N-pyridin-2-ylbenzamide]",Pgp substrate,"p-glycoprotein (Pgp); ref Passchier et al., 2000",substrate for p-glycoprotein (Pgp)
same,fraction of radioactivity in the plasma due to parent radiotracer,[2],28%
same,clearance rate from the arterial plasma,[2],0.0078 min⁻¹
same,BPND,"5-HT1A receptor [3]; ACG, mean over subjects",2.1±0.2 and 2.12
same,BPND,"5-HT1A receptor [3]; ACG, subject M1",2.05
same,BPND,"5-HT1A receptor [3]; ACG, subject M2",2.19
same,BPND,"5-HT1A receptor [3]; ACG, subject M3",1.93
same,BPND,"5-HT1A receptor [3]; ACG, subject M4",2.30
same,time to plateau of target to CB ratio (pseudoequilibrium),5-HT1A receptor [3]; IC (intermediate binding),approximately 20 minutes
same,BPND,"5-HT1A receptor [3]; IC, mean over subjects",1.2±0.1 and 1.15
same,BPND,"5-HT1A receptor [3]; IC, subject M1",1.24
same,BPND,"5-HT1A receptor [3]; IC, subject M2",1.11
same,BPND,"5-HT1A receptor [3]; IC, subject M3",0.98
same,BPND,"5-HT1A receptor [3]; IC, subject M4",1.28
same,BPND,"5-HT1A receptor [3]; MTC, mean over subjects",3.1±0.4 and 3.14
same,BPND,"5-HT1A receptor [3]; MTC, subject M1",3.01
same,BPND,"5-HT1A receptor [3]; MTC, subject M2",3.67
same,BPND,"5-HT1A receptor [3]; MTC, subject M3",2.99
same,BPND,"5-HT1A receptor [3]; MTC, subject M4",2.88
same,BPND,"5-HT1A receptor [3]; RN, mean over subjects",1.3±0.3 and 1.34
same,BPND,"5-HT1A receptor [3]; RN, subject M1",1.49
same,BPND,"5-HT1A receptor [3]; RN, subject M2",1.71
same,BPND,"5-HT1A receptor [3]; RN, subject M3",0.98
same,BPND,"5-HT1A receptor [3]; RN, subject M4",1.18
same,time to plateau of target to CB ratio (pseudoequilibrium),5-HT1A receptor [3]; high binding regions,approximately 30 minutes
same,occupancy of the unlabeled drug,5-HT1A receptor sites,less than 3%
same,"cerebellar clearance rate, slow component",[4],0.011 min⁻¹
same,K1 in the cerebellum,[4]; mean over subjects,1.00 mL/min/mL
same,k2 in the cerebellum,[4]; mean over subjects,0.34 min⁻¹
same,Kp,"[4]; rhesus monkey, in vivo, DVND (nondisplaceable distribution volume, K1/k2), cerebellum, subject M4",2.89
same,K1 in the cerebellum,[4]; subject M2,0.90 mL/min/mL
same,k2 in the cerebellum,[4]; subject M2,0.29 min⁻¹
same,K1 in the cerebellum,[4]; subject M3,1.32 mL/min/mL
same,k2 in the cerebellum,[4]; subject M3,0.45 min⁻¹
same,K1 in the cerebellum,[4]; subject M4,0.78 mL/min/mL
same,k2 in the cerebellum,[4]; subject M4,0.27 min⁻¹
"COc1ccccc1N1CCN(CCN(C(=O)C2CCC(C[18F])CC2)c2ccccn2)CC1 (stereo not shown) [[F-18]mefway, N-{2-[4-(2-methoxyphenyl)piperazinyl]ethyl}-N-(2-pyridyl)-N-(4-[F-18]-fluoromethylcyclohexane)carboxamide]",logP,[1],2.62
same,displacement of binding,5-HT1A receptor [5]; competition of 10 μM of WAY100635,almost completely displaced
same,fraction of radioactivity in the plasma due to parent radiotracer,[2],19%
same,clearance rate from the arterial plasma,[2],0.0031 min⁻¹
same,fraction of radiolabeled lipophilic metabolites,[6],< 10%
same,BPND,"5-HT1A receptor [3]; ACG, mean over subjects",7.2±1.2
same,BPND,"5-HT1A receptor [3]; ACG, mean over subjects, listed as [F-18]MEFWAY",7.15
same,BPND,"5-HT1A receptor [3]; ACG, subject M1",6.92
same,BPND,"5-HT1A receptor [3]; ACG, subject M2",7.00
same,BPND,"5-HT1A receptor [3]; ACG, subject M3",5.87
same,BPND,"5-HT1A receptor [3]; ACG, subject M4",8.82
same,BPND,"5-HT1A receptor [3]; IC, mean over subjects",4.2±0.6
same,BPND,"5-HT1A receptor [3]; IC, mean over subjects, listed as [F-18]MEFWAY",4.16
same,BPND,"5-HT1A receptor [3]; IC, subject M1",4.51
same,BPND,"5-HT1A receptor [3]; IC, subject M2",3.57
same,BPND,"5-HT1A receptor [3]; IC, subject M3",3.72
same,BPND,"5-HT1A receptor [3]; IC, subject M4",4.83
same,BPND,"5-HT1A receptor [3]; MTC, mean over subjects",7.4±0.6
same,BPND,"5-HT1A receptor [3]; MTC, mean over subjects, listed as [F-18]MEFWAY",7.36
same,BPND,"5-HT1A receptor [3]; MTC, subject M1",7.23
same,BPND,"5-HT1A receptor [3]; MTC, subject M2",8.25
same,BPND,"5-HT1A receptor [3]; MTC, subject M3",7.17
same,BPND,"5-HT1A receptor [3]; MTC, subject M4",6.77
same,plateau of target to CB ratio,"5-HT1A receptor [3]; MTC, total time of acquisition",a plateau is not reached within the total time of acquisition
same,BPND,"5-HT1A receptor [3]; RN, mean over subjects",3.7±0.6
same,BPND,"5-HT1A receptor [3]; RN, mean over subjects, listed as [F-18]MEFWAY",3.69
same,BPND,"5-HT1A receptor [3]; RN, subject M1",4.06
same,BPND,"5-HT1A receptor [3]; RN, subject M2",4.00
same,BPND,"5-HT1A receptor [3]; RN, subject M3",2.85
same,BPND,"5-HT1A receptor [3]; RN, subject M4",3.84
same,time to plateau of target to CB ratio,"5-HT1A receptor [3]; high uptake regions, 2 hour scanning period",> 2 h
same,occupancy of the unlabeled drug,5-HT1A receptor sites,less than 3%
same,"DVND (nondisplaceable distribution volume, K1/k2)","[4]; cerebellum, mean over subjects",4.02
same,"DVND (nondisplaceable distribution volume, K1/k2)","[4]; cerebellum, subject M1",4.92
same,"DVND (nondisplaceable distribution volume, K1/k2)","[4]; cerebellum, subject M2",3.53
same,"DVND (nondisplaceable distribution volume, K1/k2)","[4]; cerebellum, subject M3",4.22
same,"DVND (nondisplaceable distribution volume, K1/k2)","[4]; cerebellum, subject M4",3.41
same,"cerebellar clearance rate, slow component",[4],0.010 min⁻¹
same,K1 in the cerebellum,[4]; mean over subjects,1.02 mL/min/mL
same,k2 in the cerebellum,[4]; mean over subjects,0.27 min⁻¹
same,K1 in the cerebellum,[4]; subject M1,0.59 mL/min/mL
same,k2 in the cerebellum,[4]; subject M1,0.12 min⁻¹
same,K1 in the cerebellum,[4]; subject M2,1.34 mL/min/mL
same,k2 in the cerebellum,[4]; subject M2,0.38 min⁻¹
same,K1 in the cerebellum,[4]; subject M3,1.14 mL/min/mL
same,k2 in the cerebellum,[4]; subject M3,0.27 min⁻¹
same,K1 in the cerebellum,[4]; subject M4,0.99 mL/min/mL
same,k2 in the cerebellum,[4]; subject M4,0.29 min⁻¹
COc1ccccc1N1CCN(CCN(C(=O)C2CCC(CF)CC2)c2ccccn2)CC1 (stereo not shown) [mefway],Pgp substrate,p-glycoprotein (Pgp); no reference given,Neither mefway nor WAY100635 have been found to be Pgp substrates
same,IC50,5-HT1A receptor [5]; against [F-18]mefway,25.7 nM
